{"source": "patent US20170291905A1", "about": "“ARGININE […] INHIBITORS AND USES THEREOF” (Epizyme, Inc., priority 2014, published 2017)", "note": "Structures can show the parent of a compound that is named as a salt.", "data": [{"target": "T1, PRMT1 (Homo sapiens, UniProt Q99873)", "T1 construct": "host or cells: RKO cells", "T1 sequence (Q99873 whole entry)": "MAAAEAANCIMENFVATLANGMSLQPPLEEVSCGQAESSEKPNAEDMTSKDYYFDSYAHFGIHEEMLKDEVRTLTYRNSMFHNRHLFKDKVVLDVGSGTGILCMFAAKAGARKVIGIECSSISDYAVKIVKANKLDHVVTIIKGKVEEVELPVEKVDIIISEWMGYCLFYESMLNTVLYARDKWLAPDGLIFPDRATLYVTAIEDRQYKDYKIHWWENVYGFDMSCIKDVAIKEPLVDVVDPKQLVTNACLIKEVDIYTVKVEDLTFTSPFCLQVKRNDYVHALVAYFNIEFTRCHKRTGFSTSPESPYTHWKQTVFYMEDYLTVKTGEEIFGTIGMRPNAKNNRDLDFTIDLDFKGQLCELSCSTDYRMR", "assay": "RKO methylation assay, In Cell Western (ICW) for mono-methyl arginine and DNA content", "assay_type": "cell-based", "details": "RKO cells, 72 hours, mono-methyl arginine signal normalised to DRAQ5, percent activation", "source_text": "RKO Methylation Assay RKO adherent cells were purchased from ATCC (American Type Culture Collection), Manassas, Va., USA. DMEM/Glutamax medium, penicillin-streptomycin, heat inactivated fetal bovine serum, 0.05% trypsin and D-PBS were purchased from Life Technologies, Grand Island, N.Y., USA. Odyssey blocking buffer, 800CW goat anti-rabbit IgG (H+L) antibody, and Licor Odyssey infrared scanner were purchased from Licor Biosciences, Lincoln, Nebr., USA. Mono-methyl arginine antibody was purchased from Cell Signaling Technology, Danvers, Mass., USA. Methanol was purchased from VWR, Franklin, Mass., USA. 10% Tween 20 was purchased from KPL, Inc., Gaithersburg, Md., USA. DRAQ5 was purchased from Biostatus Limited, Leicestershire, UK. RKO adherent cells were maintained in growth medium (DMEM/Glutamax medium supplemented with 10% v/v heat inactivated fetal bovine serum and 100 units/mL penicillin-streptomycin) and cultured at 37° C. under 5% CO2. Cell Treatment, in Cell Western (ICW) for Detection of Mono-Methyl Arginine and DNA Content. RKO cells were seeded in assay medium at a concentration of 20,000 cells per mL to a poly-D-lysine coated 384 well culture plate (BD Biosciences 356697) with 50 μL per well. Compound (100 nL) from a 96-well source plate was added directly to 384 well cell plate. Plates were incubated at 37° C., 5% CO2 for 72 hours. After three days of incubation, plates were brought to room temperature outside of the incubator for ten minutes and blotted on paper towels to remove cell media. 50 μL of ice cold 100% methanol was added directly to each well and incubated for 30 min at room temperature. After 30 min, plates were transferred to a Biotek EL406 plate washer and washed 2 times with 100 μL per well of wash buffer (1×PBS). Next 60 μL per well of Odyssey blocking buffer (Odyssey Buffer with 0.1% Tween 20 (v/v)) were added to each plate and incubated 1 hour at room temperature. Blocking buffer was removed and 20 μL per well of primary antibody was added (mono-methyl arginine diluted 1:200 in Odyssey buffer with 0.1% Tween 20 (v/v)) and plates were incubated overnight (16 hours) at 4° C. Plates were washed 5 times with 100 μL per well of wash buffer. Next 20 μL per well of secondary antibody was added (1:200 800CW goat anti-rabbit IgG (H+L) antibody, 1:1000 DRAQ5 (Biostatus limited) in Odyssey buffer with 0.1% Tween 20 (v/v)) and incubated for 1 hour at room temperature. The plates were washed 5 times with 100 μL per well wash buffer then 2 times with 100 μL per well of water. Plates were allowed to dry at room temperature then imaged on the Licor Odyssey machine which measures integrated intensity at 700 nm and 800 nm wavelengths. Both 700 and 800 channels were scanned. […] Each plate included fourteen control wells of DMSO only treatment (minimum activation) as well as fourteen control wells for maximum activation treated with 20 μM of a reference compound. The average of the ratio values for each control type was calculated and used to determine the percent activation for each test well in the plate. Reference compound was serially diluted three-fold in DMSO for a total of nine test concentrations, beginning at 20 μM. Percent activation was determined and EC30 curves were generated using triplicate wells per concentration of compound.", "units": {"PRMT1 RGG ICW EC30": "nM"}, "values": [{"compound": "CNCCN(C)Cc1nc(C)sc1[C@H]1CC[C@@]2(CC1)CC(C)(C)CO2", "note": "[compound 77]", "PRMT1 RGG ICW EC30": 53.11}, {"compound": "CNCCN(C)Cc1c[nH]nc1C1CCC(C)(C)[C@H](OCC(C)C)C1", "note": "(stereo partly drawn) [compound 20, ({3-[(3R)-4,4-dimethyl-3-(2-methylpropoxy)cyclohexyl]-1H-pyrazol-4-yl}methyl)(methyl)[2-(methylamino)ethyl]amine]", "PRMT1 RGG ICW EC30": 204.3}, {"compound": "CNCCN(C)Cc1c(C)[nH]nc1[C@H]1CC[C@]2(CC1)CC(C)(C)CO2", "note": "[compound 58]", "PRMT1 RGG ICW EC30": 83.34}, {"compound": "CNCCN(C)Cc1nn(C)nc1[C@H]1CC[C@@]2(CC1)CC(C)(C)CO2", "note": "[compound 64]", "PRMT1 RGG ICW EC30": 119}, {"compound": "CNCCN(C)Cc1c[nH]nc1[C@H]1CC[C@@]2(CC1)COC(C)(C)C2", "note": "[compound 126, N1-((3-((5r,8r)-3,3-dimethyl-2-oxaspiro[4.5]decan-8-yl)-1H-pyrazol-4-yl)methyl)-N1,N2-dimethylethane-1,2-diamine]", "PRMT1 RGG ICW EC30": 15.26}, {"compound": "CNCCN(C)Cc1n[nH]cc1[C@H]1CC[C@@]2(CC1)CC(C)(C)CO2", "note": "[compound 115]", "PRMT1 RGG ICW EC30": 20.34}, {"compound": "CCOCC1(COCC)CCC(c2nn(C)cc2CN(C)CCN)CC1", "note": "[compound 124]", "PRMT1 RGG ICW EC30": 55.87}, {"compound": "CC[C@]12CC[C@](CC)(C[C@@H](c3n[nH]cc3CN(C)CCNC)C1)O2", "note": "[compound 38, N1-((3-((1R,3s,5S)-1,5-diethyl-8-oxabicyclo[3.2.1]octan-3-yl)-1H-pyrazol-4-yl)methyl)-N1,N2-dimethylethane-1,2-diamine]", "PRMT1 RGG ICW EC30": ">5000"}, {"compound": "CNCCN(C)Cc1cn(C)nc1C1CCC(C)(C)[C@@H](C(=O)NCC(C)C)C1", "note": "(some centres unmarked) [compound 25]", "PRMT1 RGG ICW EC30": ">5000"}, {"compound": "CN(CCN)Cc1nn(C)cc1[C@H]1CC[C@]2(CC1)CC(C)(C)CO2", "note": "[compound 102]", "PRMT1 RGG ICW EC30": 446.7}, {"compound": "CNCCN(C)Cc1nn(C)cc1[C@H]1CC[C@@]2(CC1)CC(C)(C)CO2", "note": "[compound 81]", "PRMT1 RGG ICW EC30": 95.94}, {"compound": "CNCCN(C)Cc1nc(C)sc1[C@H]1CC[C@]2(CC1)CC(C)(C)CO2", "note": "[compound 99]", "PRMT1 RGG ICW EC30": 95.53}, {"compound": "CN(CCN)Cc1c[nH]nc1[C@H]1CC[C@]2(CC1)CC(C)(C)CO2", "note": "[compound 106]", "PRMT1 RGG ICW EC30": 45.27}, {"compound": "CNCCN(C)Cc1ncsc1[C@H]1CC[C@@]2(CC1)CC(C)(C)CO2", "note": "[compound 83]", "PRMT1 RGG ICW EC30": 57.96}, {"compound": "CNCCN(C)Cc1n[nH]cc1[C@H]1CC[C@]2(CC1)CC(C)(C)CO2", "note": "[compound 116]", "PRMT1 RGG ICW EC30": 154.5}, {"compound": "CNCCN(C)Cc1c[nH]nc1[C@@H]1CC[C@@H](OCCCOC)C2(CCCC2)C1", "note": "(racemic) [compound 26, N1-((3-((7R,10R)-10-(3-methoxypropoxy)spiro[4.5]decan-7-yl)-1H-pyrazol-4-yl)methyl)-N1,N2-dimethylethane-1,2-diamine]", "PRMT1 RGG ICW EC30": 217.2}, {"compound": "CNCCN(C)Cc1sc(C)nc1[C@H]1CC[C@]2(CC1)CC(C)(C)CO2", "note": "[compound 100]", "PRMT1 RGG ICW EC30": 75.86}, {"compound": "CNCCN(C)Cc1ccnn1[C@H]1CC[C@]2(CC1)CC(C)(C)CO2", "note": "[compound 50, N1-((1-((5r,8r)-3,3-dimethyl-1-oxaspiro[4.5]decan-8-yl)-1H-pyrazol-5-yl)methyl)-N1,N2-dimethylethane-1,2-diamine]", "PRMT1 RGG ICW EC30": 321.2}, {"compound": "CNCCN(C)Cc1c(Cl)ncn1[C@H]1CC[C@]2(CC1)CC(C)(C)CO2", "note": "[compound 97]", "PRMT1 RGG ICW EC30": ">10000"}, {"compound": "CNCCN(C)Cc1cncn1[C@H]1CC[C@@]2(CC1)CC(C)(C)CO2", "note": "[compound 76]", "PRMT1 RGG ICW EC30": 389.4}, {"compound": "CCC1(CC)C[C@]2(CC[C@H](c3n[nH]cc3CN(C)CCNC)CC2)OC1=O", "note": "[compound 33, (5s,8s)-3,3-diethyl-8-(4-((methyl(2-(methylamino)ethyl)amino)methyl)-1H-pyrazol-3-yl)-1-oxaspiro[4.5]decan-2-one]", "PRMT1 RGG ICW EC30": 40.81}, {"compound": "CNCCN(C)Cc1c[nH]nc1[C@H]1CC[C@@]2(CCCCO2)CC1", "note": "[compound 3]", "PRMT1 RGG ICW EC30": 114.7}, {"compound": "CNCCN(C)Cc1c[nH]nc1C1=CCC(COCC(F)(F)F)CC1", "note": "(centres unmarked) [compound 16, N1,N2-dimethyl-N1-((3-(4-((2,2,2-trifluoroethoxy)methyl)cyclohex-1-en-1-yl)-1H-pyrazol-4-yl)methyl)ethane-1,2-diamine]", "PRMT1 RGG ICW EC30": 839.3}, {"compound": "CNCCN(C)Cc1c[nH]nc1[C@H]1CC[C@]2(CCN(CCC(C)C)C2=O)CC1", "note": "[compound 10]", "PRMT1 RGG ICW EC30": 2001}, {"compound": "CNCCN(C)Cc1c[nH]nc1C1=CCC(CF)(CF)CC1", "note": "[compound 15, N-((3-(4,4-bis(fluoromethyl)cyclohex-1-en-1-yl)-1H-pyrazol-4-yl)methyl)-N1,N2-dimethylethane-1,2-diamine]", "PRMT1 RGG ICW EC30": 361.1}, {"compound": "CCC1CC(c2n[nH]cc2CN(C)CCNC)CC(C(=O)NCCOC)C1(C)C", "note": "(centres unmarked) [compound 21, 3-ethyl-N-(2-methoxyethyl)-2,2-dimethyl-5-[4-([methyl[2-(methylamino)ethyl]amino]methyl)-1H-pyrazol-3-yl]cyclohexane-1-carboxamide dihydrochloride]", "PRMT1 RGG ICW EC30": ">5000"}, {"compound": "Cc1[nH]nc([C@H]2CC[C@]3(CC2)CC(C)(C)CO3)c1CN(C)CCN", "note": "[compound 52, N1-((3-((5r,8r)-3,3-dimethyl-1-oxaspiro[4.5]decan-8-yl)-5-methyl-1H-pyrazol-4-yl)methyl)-N1-methylethane-1,2-diamine]", "PRMT1 RGG ICW EC30": 373.6}, {"compound": "CCOC[C@@H]1CC(c2n[nH]cc2CN(C)CCNC)CCC1(C)C", "note": "(stereo partly drawn) [compound 31, {2-[({3-[(3R)-3-(ethoxymethyl)-4,4-dimethylcyclohexyl]-1H-pyrazol-4-yl}methyl)(methyl)amino]ethyl}(methyl)amine]", "PRMT1 RGG ICW EC30": 453.6}, {"compound": "CCOCC1(COCC)CCC(c2nn(C)cc2CN(C)CCNC)CC1", "note": "[compound 122]", "PRMT1 RGG ICW EC30": 22.11}, {"compound": "CNCCN(C)Cc1c[nH]nc1C1CCC(COCC(C)C)(COCC(C)C)CC1", "note": "[compound 6]", "PRMT1 RGG ICW EC30": 949.3}, {"compound": "CNCCN(C)Cc1c[nH]nc1C1CCC2(CC1)CC(C)(C)OC2=O", "note": "(centres unmarked) [compound 125]", "PRMT1 RGG ICW EC30": 14.88}, {"compound": "Cc1[nH]nc(C2CCC3(CC2)CC(C)(C)CO3)c1CN(C)CCN", "note": "(centres unmarked) [compound 59]", "PRMT1 RGG ICW EC30": 193.1}]}]}
